The values below come from patent US9512156B2, “Carbon monoxide releasing rhenium compounds for medical use” (UNIVERSITY OF ZURICH, priority 2010, dated 2016).

Molecules are shown by their SMILES.

Series [1] in a line: Stability under aerobic conditions (solid, solution). The series is classed as physicochemical.
The subject of series [2] is neonatal rat cardiomyocyte (NRC). The experiment in a line: Cytotoxicity towards neonatal rat cardiomyocytes under normal conditions. The series is classed as cell-based. The following applies: normal physiological conditions, up to a tested concentration of 120 μM. The procedure:
B12-CORM-2 and 4 (Scheme 3) were tested for their cytotoxic and their cytoprotective effects using the neonatal rat cardiomyocyte (NRC) cell-based model of ischemia-reperfusion injury (I/R) as previously described (Zobi et al., Inorg. Chem. 2010, 49, 7313-7322). The membrane-impermeable ReII-CORMs studied so far were non-toxic in the micromolar concentration range. To test for the possible uptake of B12-CO-RMs by cells incubation of NRCs with 30 μM of B12-CORM-2 and 4 was performed and cell culture medium samples were collected over 180 min of incubation. […] The fraction of dead cells tended to decrease in the presence of CORMs, but, due to the high variability, the differences were not statistically significant (2.7±1.7% in control vs 1.1±0.3 and 1.0±0.2 in the presence of B12-CORM-2 and B12-CORM-4 respectively).

For series [3], the system named is neonatal rat ventricular cardiomyocytes (NRCs). The conditions noted are these: Zobi et al., Inorg. Chem. 2010, 49, 7313-7322; cited from earlier work.
Series [4] concerns horse skeletal myoglobin (Mb). Nature of the series: Detection of CO release using the myoglobin assay (conversion of Mb to MbCO). The series is classed as biochemical. The conditions noted are these: pH 7.4, 25° C.
Method: Changes in the Mb spectra were recorded over time at 25° C. The methanol or DMSO content of the solution never exceeded 0.5%. […] The MbCO concentration was plotted over time and directly related to the equivalents of CO released from the compounds. The half-life of CO release from the Re compounds at different pH's was then estimated from the graphs. Control experiments were run under identical conditions but without addition of the metal complexes. All manipulations were performed under a pure N2 atmosphere in a wet box.
The final methanol or DMSO content of the buffered aqueous solution never exceeded 0.5%. The conversion of Mb to carbon monoxide myoglobin (MbCO) was followed over time by measuring the changes in the absorption spectra of the Q band region of this protein at pH 7.4, 6.3 and 5.8 after addition of the Re^II complex.
The amount of MbCO formed over time after addition of the Re complex to the Mb solution was calculated according to the known extinction coefficients. The MbCO concentration was directly related to the equivalents of CO released from the compounds and these were plotted as a function of time.
Series [5] can be described thus: Solubility in water and organic solvents. It counts as physicochemical.
Series [6] in a line: Deoxygenation of cell-free incubation medium. The following applies: within minutes after administration, dose-dependent (FIG. 9A: 60 μM, 10 min).
From the text: Therefore, the effect of the three selected CO-RMs on oxygen consumption by NRCs was investigated.
For series [7], the system named is intracellular reduced glutathione (GSH) in NRCs. Nature of the series: Intracellular reduced glutathione (GSH) in NRCs after ischemia and 10 min of reperfusion. It counts as cell-based, rat. The following applies: 30 μM, 10 min after the onset of reperfusion. The method, then:
FIG. 9. Regulation of oxygen availability and the intracellular reduced glutathione content by Re-CORMs. A: Reduction in oxygen content in the incubation medium within 10 min after addition of 60 μM of 2, 6 and B12-CORM-2; N=6-8. Given are means±SEM. B: Intracellular reduced glutathione (GSH) content in NRCs exposed to 16 h of ischemia and 10 min of reperfusion in the presence or absence of CO-RMs. N=4 Data are means±SEM.
Oxidative stress triggered by acute hyperoxygenation is a hallmark of reperfusion injury. Based on the findings presented in FIG. 9A selected CORMs may be viewed as oxygen scavengers which, when applied early on during reperfusion, may reduce the cellular oxidative damage. To test this hypothesis intracellular reduced glutathione (GSH) levels were determined in cells 10 min after the “onset of reperfusion” in the presence or absence of 30 μM 2, 6 and B12-CORM-2. […] (FIG. 9B). This acute antioxidative effect of 2 most likely reflects the ability of the intermediates formed upon CO release to react with oxygen forming ReO4^−.

Take `[Br][Re][Br].[C-]#[O+].[C-]#[O+].c1ccc2[nH]cnc2c1.c1ccc2[nH]cnc2c1` [Compound 4, [ReBr2(CO)2(BzIm)2]]: the “stability as solids under aerobic conditions” value in series [1] is “indefinitely stable”.
In the case of `[Br][Re]([Br])([n+]1cc[nH]c1)[n+]1cc[nH]c1.[C-]#[O+].[C-]#[O+]` [Compound 6, cis-trans-[Re^II(CO)2Br2(Im)2]], the “cytotoxicity towards NRCs” value in series [2] is reported as “no cytotoxicity”. Moreover, in series [3], the “cytoprotective effects against I/R injury” value is given as “substantial cytoprotective effects”.
With `Cc1ccncc1.Cc1ccncc1.[Br][Re][Br].[C-]#[O+].[C-]#[O+]` [Compound 5, [ReBr2(CO)2(4-pic)2]], the “stability as solids under aerobic conditions” value in series [1] is “indefinitely stable”.
Still for that read-out and setting: under `Cn1ccnc1.Cn1ccnc1.[Br][Re][Br].[C-]#[O+].[C-]#[O+]` [Compound 3, [ReBr2(CO)2(MeIm)2]] stands “slowly decomposed over time”.
`CC[N+](CC)(CC)CC.CC[N+](CC)(CC)CC.[Br][Re-2]([Br])([Br])[Br].[C-]#[O+].[C-]#[O+]` [Compound 2, [Et4N]2[Re^IIBr4(CO)2]]: in series [4], the “time to saturation of Mb with CO liberated from the compound” value is reported as at most 30 min. Moreover, the solubility in water entry in series [5] is reported as “well soluble in water”. Moreover, the “cytotoxicity towards NRCs” value in series [2] is recorded as “no cytotoxicity”. The “deoxygenation of the cell-free medium” value in series [6] is reported as “resulted in deoxygenation”. In series [7], the “intracellular reduced glutathione (GSH) levels” value is reported as “increase”. The “cytoprotective effects against I/R injury” value in series [3] is “substantial cytoprotective effects”.
